Legend:
Type in all cases: in vivo
Meloidogyne incognita = test: Root infestation on agar plate: root knot count on potato microplant roots; details: 60 μM in agar, galls counted 5 weeks after inoculation, four replicates
Method: 9 cm petri dishes were filled with a 15 ml agar. One stem cutting of a potato microplant (Solanum tuberosum cv. Desirée) was placed on top of the agar layer. After 2 to 3 weeks of incubation at 20° C., the root system was sufficiently developed to be inoculated.
The test compounds (see Table 1) were added 2 days before inoculation by way of spreading a 2 ml DMSO-solution with the compound over the agar and allowing the compound to diffuse in the agar during two days at constant temperature of 20° C. During incubation, the plates are protected from light in a dark incubator. The resulting concentration of each compound in each agar plate was 60 μM.
After incubation, approximately 400 axenic juveniles of Meloidogyne incognita species were added to the plate.
The plates were incubated in the dark at a constant temperature of 20° C. and 5 weeks after inoculation the number of galls formed on the roots were determined by counting. Also any toxic effect of the test compounds on the roots was recorded. 8 weeks after inoculation the plates were stored at low temperature.
Each compound was tested in four replicates. Positive controls were treated with different concentrations of Aldicarb, a known nematicide. Negative controls included 5 replicates of double negative controls (no compound, no nematode), 5 replicates of single negative controls (no compound, with nematode) and 5 replicates of DMSO controls (DMSO solution, with nematode).

[1] = test system: Meloidogyne incognita nematodes; test: Pot Assay 1: Meloidogyne infection of potato, egg masses/galls on roots; details: for number of egg masses (galls) on roots, Replicate 1 / number of egg masses (galls) on roots, Replicate 2 / number of egg masses (galls) on roots, Replicate 3: potato in pot, week 8 after inoculation
Method: 500 ml clay pots were filled with 400 ml of silver sand. One tuber of potato ( Solanum tuberosum cv. Bintje) was planted in the sand. After 2 to 3 weeks incubation, the potato plant was sufficiently developed to be inoculated.
Plants were grown under the usual standard greenhouse conditions at 14° C.-18° C., with 16 hours light and 8 hours dark and 80-90% relative humidity. The pots were watered using individual drippers and fertilizers were added under the form of macro- and micro nutrients according to plant growth requirements. When needed, the plants were sprayed with fungicides and insecticides.
The compounds as described herein were added one day before inoculation. The compounds were dissolved in a 20 ml DMSO-solution and spread over the sand surface. The final concentration is calculated under the assumption that the compound is diffused entirely in the pot. This process occurred during two days at the normal greenhouse conditions described above.
After compound incubation, approximately 1500 juveniles of Meloidogyne incognita nematodes were added to the pots.
The pots were incubated at the described greenhouse conditions until nematode development was completed. At week 8 after inoculation the number of galls formed on the roots was counted after washing off the sandy substrate. Also the effect of the compound on the plant development was recorded.
Every compound was tested in three replicates. Positive control plants were treated with different concentrations of aldicarb, a known nematicide. Negative controls involved 12 replicates of double negative controls (no compound, no nematode), 12 replicates of single negative controls (no compound, no DMSO, with nematode), 24 replicates of DMSO controls (DMSO solution, with nematode).
As assessment of the root development was taken into account.

Meloidogyne nematodes = test: Pot Assay 2: Meloidogyne infection of tomato, % infestation of roots; details: for % INF. (% Infestation): tomato in infested soil
Method: The soil used in this assay originated from a plot, heavily infested with Meloidogyne nematodes. Part of this soil was sterilized by autoclaving and was used as negative control. Sandy soil, which was not infested with nematodes, was pursued from a commercial source.
Plastic seedling trays with wells of 60 ml capacity were filled with about 40 ml of soil per well. 5 ml of water per well was used for irrigation.
Compounds as described herein were tested in 4 different rates and with 12 replicates for each concentration. The compounds as described herein were stored as dry films of 4 different concentrations. The day of the application of the compounds, all the dry films were dissolved in 60 ml water and poured into the 12 replicate wells: 5 ml per well. Every tray of 12 wells was identified with a label, indicating compound and concentration used. The 4 final rates in the soil of the tested compound were approximately 0.05 mg, 0.20 mg, 1 mg and 5 mg. These amounts translate to field application rates respectively as 30, 120, 600 and 3000 g per hectare.
3-5 days after application of the tested compound, tomato seeds (cv. Rio Grande) were sown in the wells by hand, at about 2 cm deep. A light cover of vermiculite on the surface was used to avoid dehydration. Plants were irrigated by micro-nebulization 3-4 times per week at a rate of 3 L/m^2, weeded by hand and treated with fertilizers, fungicide and insecticides when needed.
Their resistance against nematode infection was monitored and the efficacy of compounds described herein as a nematicide was measured. Furthermore the phytotoxicity of the test compounds was evaluated.
Efficacy of the compounds described herein as nematicide was measured by giving the roots a percentage of infestation measured as follows. Plants were grown to reach good development of the roots, which corresponds to plants grown to about 10 cm high at about one month after emergence. After removal of the soil from the roots by rinsing with water, the roots were visually inspected and root galls were counted on 4 plants of the set of 12 replicate plants.
Positive control plants were treated with a 10 micromolar concentration of oxamyl (Vydate, 10% SL; the rate of 10 micromolar corresponds to a commercial rate of 20 l/ha), a known nematicide. Negative controls involved double negative controls (no compound, sterile soil), and single negative controls (no compound, with nematode infested soil).

tomato (cv. Rio Grande) = test: Pot Assay 2: root development (vigor of roots) of tomato; details: for ROOT DEV.: visual value 0 to 10 (10 equal to control)
Method: Phytotoxicity of compounds as described herein when used as a nematicide, was measured as follows. […] At that moment, plant emergence was assessed for the plants treated with any of the compounds as described herein, by counting the number of plants per compound-concentration.
Vigor of roots was also assessed once the plants are well established so as not to loose plants. To assess vigor of the plants or roots, a visual value ranging from 0 to 10 (0 no vigor, 10 equal to control) was scored per compound-concentration.

[2] = highest concentration of the reference compound
[3] = reference, 10 micromolar (Vydate, 10% SL)

## CC(C)=CC1C(C(=O)OCN2C(=O)C3=C(CCCC3)C2=O)C1(C)C (mixture of isomers) [LIX]
Meloidogyne incognita
  Root knot count, average of the replicate counts: 19

## CC(C)=CC1C(C(=O)OCc2coc(Cc3ccccc3)c2)C1(C)C (mixture of isomers) [LVII]
Meloidogyne incognita
  Root knot count, average of the replicate counts: 8.5

## CC1COC(Cn2cncn2)(c2ccc(Oc3ccc(Cl)cc3)cc2Cl)O1 (mixture of isomers) [XLIX]
[1]; 10 μM
  number of egg masses (galls) on roots, Replicate 1: 70
  number of egg masses (galls) on roots, Replicate 2: 60
  number of egg masses (galls) on roots, Replicate 3: 40
[1]; 50 μM
  number of egg masses (galls) on roots, Replicate 2: 60
  number of egg masses (galls) on roots, Replicate 3: 10
Meloidogyne incognita
  Root knot count, average of the replicate counts: 19.25
Meloidogyne nematodes; RATE 1 mg
  % INF. (% Infestation): 0.0%
Tomato (cv. Rio Grande); RATE 1 mg
  ROOT DEV.: 7.9

## Cc1c(F)c(F)c(COC(=O)C2C(C=C(Cl)C(F)(F)F)C2(C)C)c(F)c1F (racemic) [LVIII]
[1]; 50 μM
  number of egg masses (galls) on roots, Replicate 1: 60
  number of egg masses (galls) on roots, Replicate 2: 100
  number of egg masses (galls) on roots, Replicate 3: 30
Meloidogyne incognita
  Root knot count, average of the replicate counts: 18.25

## CNC1=C(c2cccc(C(F)(F)F)c2)C(=O)C(c2ccccc2)O1 (racemic) [XV]
Meloidogyne incognita
  Root knot count, average of the replicate counts: 18

## CNC(=O)O/N=C/C(C)(C)SC [Aldicarb, reference compound]
[1]; [2]
  egg mass development (number of egg masses): 41
  reduction of the egg mass development, fraction of control: about ⅓
[1]; three lowest concentrations of the reference compound
  effect on the nematode development: no effect

## CCC(N)P(=O)(O)O (centres unmarked) [II]
Meloidogyne incognita
  Root knot count, average of the replicate counts: 6.5
Meloidogyne nematodes; RATE 0.05 mg
  % INF. (% Infestation): 0.0%
Meloidogyne nematodes; RATE 0.2 mg
  % INF. (% Infestation): 0.0%
Meloidogyne nematodes; RATE 1 mg
  % INF. (% Infestation): 0.0%
Meloidogyne nematodes; RATE 5 mg
  % INF. (% Infestation): 0.0%
Tomato (cv. Rio Grande); RATE 0.05 mg
  ROOT DEV.: 6.7
Tomato (cv. Rio Grande); RATE 0.2 mg
  ROOT DEV.: 7.3
Tomato (cv. Rio Grande); RATE 1 mg
  ROOT DEV.: 7.3
Tomato (cv. Rio Grande); RATE 5 mg
  ROOT DEV.: 7.9

## N#Cc1c(Cl)c(Cl)c(Cl)c(C#N)c1Cl [IV]
Meloidogyne incognita
  Root knot count, average of the replicate counts: 11.5

## CCNC(=O)NC(=O)C(C#N)=NOC [LII]
Meloidogyne incognita
  Root knot count, average of the replicate counts: 15.5

## Cc1cccc(C)c1N(C(=O)CCl)C1CCOC1=O (centres unmarked) [LIV]
Meloidogyne incognita
  Root knot count, average of the replicate counts: 14.5
Meloidogyne nematodes; RATE 0.05 mg
  % INF. (% Infestation): 5.0%
Meloidogyne nematodes; RATE 0.2 mg
  % INF. (% Infestation): 5.0%
Meloidogyne nematodes; RATE 1 mg
  % INF. (% Infestation): 3.8%
Meloidogyne nematodes; RATE 5 mg
  % INF. (% Infestation): 2.5%
Tomato (cv. Rio Grande); RATE 0.05 mg
  ROOT DEV.: 7.5
Tomato (cv. Rio Grande); RATE 0.2 mg
  ROOT DEV.: 7.2
Tomato (cv. Rio Grande); RATE 1 mg
  ROOT DEV.: 7.6
Tomato (cv. Rio Grande); RATE 5 mg
  ROOT DEV.: 6.6

## O=C(NC(=O)c1c(F)cccc1F)Nc1cc(Cl)c(Oc2ncc(C(F)(F)F)cc2Cl)c(Cl)c1 [LI]
Meloidogyne incognita
  Root knot count, average of the replicate counts: 17.5

## COCC(=O)N(c1c(C)cccc1C)N1CCOC1=O [LV]
Meloidogyne incognita
  Root knot count, average of the replicate counts: 17.75

## CNC(=O)O/N=C(\SC)C(=O)N(C)C [Oxamyl, reference compound]
Meloidogyne nematodes; RATE 1 mg
  % INF. (% Infestation): 13.8%
Meloidogyne nematodes; [3]
  percentage of infestation: 13.8%
Tomato (cv. Rio Grande); RATE 1 mg
  ROOT DEV.: 7.5
Tomato (cv. Rio Grande); [3]
  root development: 7.5
